Key:
Test in all cases: relative viability (nuclei count vs DMSO), 5 days (fraction); higher = more cells survive
Idelalisib + Bortezomib = compound: CC[C@H](Nc1ncnc2[nH]cnc12)c1nc2cccc(F)c2c(=O)n1-c1ccccc1 [Idelalisib] + CC(C)C[C@H](NC(=O)[C@H](Cc1ccccc1)NC(=O)c1cnccn1)B(O)O [Bortezomib] (partner 0.002 µM)
In short: (§1)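 One day after seeding in 1536-well plates, lung cancer cell lines were dosed by pin tool. Dosing was either single-drug or a fixed anchor-drug dose plus five library-drug doses (not always all listed) in √10 steps. After 5 days, nuclei were stained in one fix-and-stain step and counted on 4× images, and relative viability is the nuclei count of treated wells over that of vehicle wells, given as the median of duplicate plates.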

Idelalisib + Linsitinib = compound: CC[C@H](Nc1ncnc2[nH]cnc12)c1nc2cccc(F)c2c(=O)n1-c1ccccc1 [Idelalisib] + C[C@]1(O)C[C@@H](c2nc(-c3ccc4ccc(-c5ccccc5)nc4c3)c3c(N)nccn32)C1 [Linsitinib] (partner 1 µM)
In short: as §1

Pemetrexed + Navitoclax = compound: Nc1nc2[nH]cc(CCc3ccc(C(=O)N[C@@H](CCC(=O)O)C(=O)O)cc3)c2c(=O)[nH]1 [Pemetrexed] + CC1(C)CCC(c2ccc(Cl)cc2)=C(CN2CCN(c3ccc(C(=O)NS(=O)(=O)c4ccc(N[C@H](CCN5CCOCC5)CSc5ccccc5)c(S(=O)(=O)C(F)(F)F)c4)cc3)CC2)C1 [Navitoclax] (partner 0.5 µM)
In short: as §1

Pemetrexed + Phenformin = compound: Nc1nc2[nH]cc(CCc3ccc(C(=O)N[C@@H](CCC(=O)O)C(=O)O)cc3)c2c(=O)[nH]1 [Pemetrexed] + N=C(N)NC(=N)NCCc1ccccc1 [Phenformin] (partner 250 µM)
In short: as §1

| Cell Line | relative viability (Idelalisib + Bortezomib; first compound 0.04 µM) | relative viability (Idelalisib + Bortezomib; first compound 0.1265 µM) | relative viability (Idelalisib + Bortezomib; first compound 0.4 µM) | relative viability (Idelalisib + Bortezomib; first compound 1.265 µM) | relative viability (Idelalisib + Bortezomib; first compound 4 µM) | relative viability (Idelalisib + Linsitinib; first compound 0.04 µM) | relative viability (Idelalisib + Linsitinib; first compound 0.1265 µM) | relative viability (Idelalisib + Linsitinib; first compound 0.4 µM) | relative viability (Idelalisib + Linsitinib; first compound 1.265 µM) | relative viability (Idelalisib + Linsitinib; first compound 4 µM) | relative viability (Pemetrexed + Navitoclax; first compound 0.002 µM) | relative viability (Pemetrexed + Navitoclax; first compound 0.006325 µM) | relative viability (Pemetrexed + Navitoclax; first compound 0.02 µM) | relative viability (Pemetrexed + Navitoclax; first compound 0.06325 µM) | relative viability (Pemetrexed + Navitoclax; first compound 0.2 µM) | relative viability (Pemetrexed + Phenformin; first compound 0.002 µM) | relative viability (Pemetrexed + Phenformin; first compound 0.006325 µM) | relative viability (Pemetrexed + Phenformin; first compound 0.02 µM) | relative viability (Pemetrexed + Phenformin; first compound 0.06325 µM) | relative viability (Pemetrexed + Phenformin; first compound 0.2 µM) |
| --- | --- | --- | --- | --- | --- | --- | --- | --- | --- | --- | --- | --- | --- | --- | --- | --- | --- | --- | --- | --- |
| HCC-44 | 0.825 | 0.946 | 0.908 | 0.984 | 0.825 | 0.662 | 0.65 | 0.596 | 0.476 | 0.584 | 0.864 | 0.836 | 1.02 | 0.929 | 0.866 | 0.129 | 0.23 | 0.187 | 0.224 | 0.207 |
| HCC-78 | 0.365 | 0.423 | – | 0.46 | 0.266 | 0.254 | 0.514 | 0.346 | 0.45 | 0.226 | – | 0.646 | 0.547 | 0.242 | 0.207 | 0.446 | 0.694 | 0.599 | 0.361 | 0.255 |
| HCC-366 | 1 | 1.11 | 1 | 1.03 | 0.931 | 0.619 | 0.598 | 0.444 | 0.578 | 0.253 | 1.07 | 0.95 | 0.974 | 1.02 | 0.963 | 0.515 | 0.616 | 0.672 | 0.612 | 0.571 |
| HCC-827 | 1.1 | 0.99 | 1.03 | 1.17 | 1.07 | 0.958 | 0.961 | 0.96 | 0.885 | 0.965 | 0.926 | 0.964 | 1.13 | 1.02 | 0.908 | 0.366 | 0.417 | 0.436 | 0.4 | 0.37 |
| IA-LM | 0.987 | 0.847 | 0.956 | 0.88 | 0.889 | 0.426 | 0.83 | 0.709 | 0.541 | 0.404 | 0.773 | 0.798 | 0.856 | 0.711 | 0.483 | – | – | – | – | – |
| LCLC-103H | 1.07 | 1.24 | 1.04 | 1.04 | 0.911 | 1.11 | 0.948 | 0.886 | 1.05 | 0.704 | – | – | – | – | – | 0.316 | 0.333 | 0.364 | 0.351 | 0.3 |
| LK-2 | – | – | – | – | – | 0.531 | 0.418 | 0.5 | 0.518 | 0.419 | 0.835 | 0.844 | 0.823 | 0.8 | 0.592 | 0.51 | 0.475 | 0.883 | 0.376 | 0.267 |
| NCI-H358 | – | – | – | – | – | 0.805 | 0.794 | 0.638 | 0.64 | 0.637 | – | – | – | – | – | 0.334 | 0.359 | 0.31 | 0.166 | 0.132 |
| NCI-H522 | – | – | – | – | – | – | – | – | – | – | – | – | – | – | – | 0.739 | 0.593 | 0.77 | 0.692 | 0.583 |
| NCI-H650 | 0.693 | 0.998 | 0.735 | 1.13 | 0.662 | 0.934 | 0.981 | 0.789 | 0.798 | 0.775 | – | – | – | – | – | 0.406 | 0.468 | 0.457 | 0.428 | 0.469 |
| NCI-H661 | 0.679 | 0.658 | 0.496 | 0.661 | 0.628 | 0.588 | 0.551 | 0.373 | 0.389 | 0.458 | – | – | – | – | – | 0.288 | 0.28 | 0.286 | 0.276 | 0.273 |
| NCI-H1299 | 1.03 | 1.03 | 1.02 | 1.09 | 1.03 | 1.03 | 1.07 | 0.978 | 0.959 | 0.928 | 1.05 | 0.981 | 1.1 | 1.04 | 1 | – | – | – | – | – |
| NCI-H1395 | – | – | – | – | – | 1.15 | 1.22 | 0.92 | 0.82 | 0.77 | 1.06 | 1.14 | 1.24 | 1.11 | 1.11 | 0.4 | 0.472 | 0.521 | 0.411 | 0.447 |
| NCI-H1563 | 0.932 | 0.858 | 0.696 | 0.864 | 0.681 | 1.16 | 1.29 | 1.07 | 1.15 | 0.832 | – | – | – | – | – | 0.745 | 0.649 | 0.67 | 0.651 | 0.64 |
| NCI-H1623 | – | – | – | – | – | – | – | – | – | – | – | – | – | – | – | 0.575 | 0.588 | 0.564 | 0.627 | 0.598 |
| NCI-H1650 | 0.208 | 0.19 | 0.239 | 0.208 | 0.202 | – | – | – | – | – | 1.08 | 1.11 | 1.37 | 1.15 | 0.632 | 0.415 | 0.39 | 0.408 | 0.309 | 0.231 |
| NCI-H1703 | 0.305 | 0.404 | 0.246 | 0.332 | 0.161 | 1.31 | 0.976 | 0.669 | 1.2 | 0.474 | 1.04 | 0.967 | 1.86 | 1.24 | 1.09 | – | – | – | – | – |
| NCI-H1793 | – | – | – | – | – | 1.02 | 0.852 | 0.505 | 0.797 | 0.582 | 0.616 | 0.41 | 0.55 | 0.421 | 0.416 | 0.436 | 0.361 | 0.42 | 0.349 | 0.405 |
| NCI-H1944 | – | – | – | – | – | 1.19 | 1.06 | 1.06 | 1.14 | 0.808 | 0.945 | 1.01 | 1.03 | 1.08 | 1.01 | – | 0.229 | 0.207 | 0.189 | 0.189 |
| NCI-H2170 | – | – | – | – | – | – | – | – | – | – | 0.538 | 0.587 | 0.663 | 0.662 | 0.5 | 0.449 | 0.443 | 0.424 | 0.42 | 0.405 |
| NCI-H2342 | – | – | – | – | – | – | – | – | – | – | – | – | – | – | – | 0.501 | 0.6 | 0.526 | 0.54 | 0.618 |
| SK-MES-1 | – | – | – | – | – | 1.02 | 0.984 | 0.934 | 0.855 | 0.703 | 1.24 | 1.1 | 1.27 | 1.26 | 1.2 | 0.647 | 0.638 | 0.705 | 0.642 | 0.614 |
| SW 900 | – | – | – | – | – | – | – | – | – | – | – | – | – | – | – | 0.759 | 0.578 | 0.763 | 0.548 | 0.477 |

Reference: the supplement of paper PMC10307832
